Measurements reported in patent US20140031283A1, “ANTICANCER FUSION PROTEIN” (ADAMED SP. Z O.O., priority 2011, published 2014).
“And” between values parts separate entries of the source, which are not always exact repeats. Identical values can stand only once. Like-named read-outs stand apart in the source and are kept apart here.

Tests used:
A549 = assay: MTT cytotoxicity test, A549 (human lung cancer); assay type: cell-based
Source text: MTT assay is a colorimetric assay used to measure proliferation, viability and cytotoxicity of cells. It consists in decomposition of a yellow tetrazolium salt MTT (4,5-dimethyl-2-thiazolyl)-2,5-diphenyltetrazolium bromide) to the water-insoluble purple dye formazan by mitochondrial enzyme succinate-tetrazolium reductase 1. MTT reduction occurs only in living cells. Data analysis consists in determining IC50 concentration of the protein (in ng/ml), at which the 50% reduction in the number of cells occurs in the population treated compared to control cells. Results were analyzed using GraphPad Prism 5.0 software. The test was performed according to the literature descriptions (Cells, J E, (1998). Cell Biology, a Laboratory Handbook, second edition, Academic Press, San Diego; Yang, Y., Koh, L W, Tsai, J H., (2004); Involvement of viral and chemical factors with oral cancer in Taiwan, Jpn J Clin Oncol, 34 (4), 176-183). Cell culture medium was diluted to a defined density (10^4-10^5 cells per 100 μl). Then 100 μl of appropriately diluted cell suspension was applied to a 96-well plate in triplicates. Thus prepared cells were incubated for 24 h at 37° C. in 5% or 10% CO2, depending on the medium used, and then to the cells (in 100 μl of medium) further 100 μl of the medium containing various concentrations of tested proteins were added. In the case of combination hTRAIL114-281 and p21WAF effector protein, 100 μl of the medium containing mixture of hTRAIL114-281 and p21WAF effector protein in molar ratio 1:1 was added. After incubation of the cells with tested proteins over the period of next 72 hours, which is equivalent to 3-4 times of cell division, the medium with the test protein was added with […] of MTT working solution [5 mg/ml], and incubation was continued for 3 h at 37° C. in 5% CO2. Then the medium with MTT solution was removed, and formazan crystals were dissolved by adding 100 μl of DMSO. After stirring, the absorbance was measured at 570 nm (reference filter 690 nm). […]

Colo 205 = assay: MTT cytotoxicity test, Colo 205 (human colorectal cancer); assay type: cell-based
Source text: (§1) MTT assay is a colorimetric assay used to measure proliferation, viability and cytotoxicity of cells. It consists in decomposition of a yellow tetrazolium salt MTT (4,5-dimethyl-2-thiazolyl)-2,5-diphenyltetrazolium bromide) to the water-insoluble purple dye formazan by mitochondrial enzyme succinate-tetrazolium reductase 1. MTT reduction occurs only in living cells. Data analysis consists in determining IC50 concentration of the protein (in ng/ml), at which the 50% reduction in the number of cells occurs in the population treated compared to control cells. Results were analyzed using GraphPad Prism 5.0 software. The test was performed according to the literature descriptions (Cells, J E, (1998). Cell Biology, a Laboratory Handbook, second edition, Academic Press, San Diego; Yang, Y., Koh, L W, Tsai, J H., (2004); Involvement of viral and chemical factors with oral cancer in Taiwan, Jpn J Clin Oncol, 34 (4), 176-183). Cell culture medium was diluted to a defined density (10^4-10^5 cells per 100 μl). Then 100 μl of appropriately diluted cell suspension was applied to a 96-well plate in triplicates. […] After stirring, the absorbance was measured at 570 nm (reference filter 690 nm). […]

HT-29 = assay: MTT cytotoxicity test, HT-29 (human colorectal cancer); assay type: cell-based; details: continuous incubation over 72 h, test MTT
Source text: as §1

DU-145 = assay: MTT cytotoxicity test, DU-145 (human prostate cancer); assay type: cell-based; details: continuous incubation over 72 h
Source text: as §1

MCF-7 = assay: MTT cytotoxicity test, MCF-7 (human breast cancer); assay type: cell-based; details: continuous incubation over 72 h
Source text: as §1

MDA-MB-231 = assay: MTT cytotoxicity test, MDA-MB-231 (human breast cancer); assay type: cell-based; details: continuous incubation over 72 h, test MTT
Source text: as §1

MDA-MB-435s = assay: MTT cytotoxicity test, MDA-MB-435s (human breast cancer); assay type: cell-based; details: continuous incubation over 72 h
Source text: as §1

UM-UC-3 = assay: MTT cytotoxicity test, UM-UC-3 (human bladder cancer); assay type: cell-based
Source text: as §1

SW780 = assay: MTT cytotoxicity test, SW780 (human bladder cancer); assay type: cell-based
Source text: as §1

SW620 = assay: MTT cytotoxicity test, SW620 (human colorectal cancer); assay type: cell-based; details: continuous incubation over 72 h, test MTT
Source text: as §1

BxPC-3 = assay: MTT cytotoxicity test, BxPC-3 (human pancreatic cancer); assay type: cell-based
Source text: as §1

SK-OV-3 = assay: MTT cytotoxicity test, SK-OV-3 (human ovarian cancer); assay type: cell-based; details: continuous incubation over 72 h
Source text: as §1

NIH: OVCAR-3 = assay: MTT cytotoxicity test, NIH: OVCAR-3 (human ovarian cancer); assay type: cell-based
Source text: as §1

HepG2 = assay: MTT cytotoxicity test, HepG2 (human liver hepatoma); assay type: cell-based; details: continuous incubation over 72 h, test MTT
Source text: as §1

ACHN = assay: MTT cytotoxicity test, ACHN (human kidney cancer); assay type: cell-based; details: continuous incubation over 72 h
Source text: as §1

CAKI 1 = assay: MTT cytotoxicity test, CAKI 1 (human kidney cancer); assay type: cell-based; details: continuous incubation over 72 h
Source text: as §1

CAKI 2 = assay: MTT cytotoxicity test, CAKI 2 (human kidney cancer); assay type: cell-based; details: continuous incubation over 72 h
Source text: as §1

HT144 = assay: MTT cytotoxicity test, HT144 (human melanoma cells); assay type: cell-based
Source text: as §1

MES-SA/Dx5 = assay: MTT cytotoxicity test, MES-SA/Dx5 (multidrug-resistant human uterine sarcoma); assay type: cell-based; details: Table 4, mean/SD part
Source text: as §1

SK-MES-1 = assay: MTT cytotoxicity test, SK-MES-1 (human lung cancer); assay type: cell-based; details: Table 4, mean/SD part
Source text: as §1

Panc-1 = assay: MTT cytotoxicity test, Panc-1 (human pancreatic cancer); assay type: cell-based; details: continuous incubation over 72 h, test MTT
Source text: as §1

Panc03.27 = assay: MTT cytotoxicity test, Panc03.27 (human pancreatic cancer); assay type: cell-based; details: continuous incubation over 72 h
Source text: as §1

PLC/PRF/5 = assay: MTT cytotoxicity test, PLC/PRF/5 (human liver hepatoma); assay type: cell-based; details: continuous incubation over 72 h, test MTT
Source text: as §1

LNCaP = assay: MTT cytotoxicity test, LNCaP (human prostate cancer); assay type: cell-based; details: Table 4, mean/SD part
Source text: as §1

SK-Hep-1 = assay: MTT cytotoxicity test, SK-Hep-1 (human liver hepatoma); assay type: cell-based; details: continuous incubation over 72 h
Source text: as §1

A498 = assay: MTT cytotoxicity test, A498 (human kidney cancer); assay type: cell-based; details: continuous incubation over 72 h
Source text: as §1

HT1080 = assay: MTT cytotoxicity test, HT1080 (human fibrosarcoma); assay type: cell-based; details: continuous incubation over 72 h
Source text: as §1

Jurkat A3 = assay: EZ4U cytotoxicity test, Jurkat A3 (human leukaemia); assay type: cell-based; details: continuous incubation over 72 h; heading prints test MTT
Description: EZ4U (Biomedica) test was used for testing cytotoxic activity of the proteins in nonadherent cell lines. The test is a modification of the MTT method, wherein formazan formed in the reduction of tetrazolium salt is water-soluble. Cell viability study was carried out after continuous 72-hour incubation of the cells with protein (seven concentrations of protein, each in triplicates). On this basis IC5O values were determined (as an average of two independent experiments) using the GraphPad Prism 5 software. Control cells were incubated with the solvent only.
The results of in vitro cytotoxicity tests are summarized as IC50 values (ng/ml), which corresponds to the protein concentration at which the cytotoxic effect of fusion proteins is observed at the level of 50% with respect to control cells treated only with solvent. Each experiment represents the average value of at least two independent experiments performed in triplicates. As a criterion of lack of activity of protein preparations the IC50 limit of 2000 ng/ml was adopted.

[1] = continuous incubation over 72 h, test MTT

Description for HCT-116: (§2) Data analysis consists in determining IC50 concentration of the protein (in ng/ml), at which the 50% reduction in the number of cells occurs in the population treated compared to control cells. Results were analyzed using GraphPad Prism 5.0 software. […] Cell culture medium was diluted to a defined density (10^4-10^5 cells per 100 μl). Then 100 μl of appropriately diluted cell suspension was applied to a 96-well plate in triplicates. Thus prepared cells were incubated for 24 h at 37° C. in 5% or 10% CO2, depending on the medium used, and then to the cells (in 100 μl of medium) further 100 μl of the medium containing various concentrations of tested proteins were added. […] After incubation of the cells with tested proteins over the period of next 72 hours, which is equivalent to 3-4 times of cell division, the medium with the test protein was added with 20 ml of MTT working solution [5 mg/ml], and incubation was continued for 3 h at 37° C. in 5% CO2. Then the medium with MTT solution was removed, and formazan crystals were dissolved by adding 100 μl of DMSO. After stirring, the absorbance was measured at 570 nm (reference filter 690 nm).
Description for NCI-H460: as §2

CC[C@H](C)[C@H](NC(=O)[C@H](CC(C)C)NC(=O)[C@H](CCCNC(=N)N)NC(=O)[C@H](CCCNC(=N)N)NC(=O)[C@H](CCCCN)NC(=O)[C@H](CO)NC(=O)[C@H](Cc1c[nH]cn1)NC(=O)[C@H](Cc1ccc(O)cc1)NC(=O)[C@H](Cc1ccccc1)NC(=O)[C@H](CC(=O)O)NC(=O)[C@@H](NC(=O)[C@H](C)NC(=O)[C@H](CO)NC(=O)[C@@H](NC(=O)[C@H](CCC(N)=O)NC(=O)[C@H](CCCNC(=N)N)NC(=O)[C@H](CCCNC(=N)N)NC(=O)[C@@H](N)CCCCN)[C@@H](C)O)[C@@H](C)O)C(=O)N[C@@H](Cc1ccccc1)C(=O)N[C@@H](CO)C(=O)O [peptide derived from p21WAF]
A549 IC50 (A549; 72 h): >1000 µg/mL | NCI-H460 IC50 (NCI-H460; 72 h): >1000 µg/mL | HCT116 IC50 (HCT-116; 72 h): >1000 µg/mL

TRAIL 95-281
COLO205 IC50 (Colo 205; [1]): 0.05902 µg/mL | HT29 IC50 (HT-29): >2 µg/mL | DU145 IC50 (DU-145): >2 µg/mL | MCF 7 IC50 (MCF-7): >2 µg/mL | MDA-MB-231 IC50 (MDA-MB-231): >2 µg/mL | MDA-MB-435s IC50 (MDA-MB-435s): >2 µg/mL | UM-UC-3 IC50 (UM-UC-3; [1]): >2 µg/mL | SW780 IC50 (SW780; [1]): 0.12 µg/mL | SW620 IC50 (SW620): >2 µg/mL | BxPC3 IC50 (BxPC-3; [1]): 0.06061 µg/mL | SK-OV-3 IC50 (SK-OV-3): >2 µg/mL | OV-CAR-3 IC50 (NIH: OVCAR-3; [1]): 0.963 µg/mL | HepG2 IC50 (HepG2): >2 µg/mL | ACHN IC50 (ACHN): >2 µg/mL | CAKI 1 IC50 (CAKI 1): 0.3953 µg/mL | CAKI 2 IC50 (CAKI 2): >2 µg/mL | HT144 IC50 (HT144; [1]): 0.0341 µg/mL | A549 IC50 (A549; [1]): >2 µg/mL | HCT116 IC50 (HCT-116; [1]): >2 µg/mL

rhTRAIL 95-281
COLO 205 mean (IC50) (Colo 205; Table 4, mean/SD part): 0.0249 µg/mL | UM-UC-3 mean (IC50) (UM-UC-3; Table 4, mean/SD part): 2.242 µg/mL and 2.241 µg/mL | SW780 mean (IC50) (SW780; Table 4, mean/SD part): 0.12 µg/mL | BxPC3 mean (IC50) (BxPC-3; Table 4, mean/SD part): 0.06471 µg/mL | OVCAR-3 mean (IC50) (NIH: OVCAR-3; Table 4, mean/SD part): 0.963 µg/mL | HT 144 mean (IC50) (HT144; Table 4, mean/SD part): 1.7335 µg/mL | MES-SA/Dx5 mean (IC50) (MES-SA/Dx5): 0.02915 µg/mL | SK-MES-1 mean (IC50) (SK-MES-1): 0.0336 µg/mL | Panc-1 IC50 (Panc-1): >2 µg/mL | Panc03.27 IC50 (Panc03.27): 0.315 µg/mL | PLC/PRF/5 IC50 (PLC/PRF/5): >2 µg/mL | LNCaP mean (IC50) (LNCaP): 2.0515 µg/mL | SK Hep-1 IC50 (SK-Hep-1): >2 µg/mL | A498 IC50 (A498): 1.611 µg/mL | HT1080 IC50 (HT1080): >2 µg/mL | JURKAT A3 IC50 (Jurkat A3): >2 µg/mL | NCI-H460 mean (IC50) (NCI-H460; Table 4, mean/SD part): 5.8885 µg/mL and 5.888 µg/mL | NCI-H460 IC50 (NCI-H460; [1]): 0.4382 µg/mL | HCT116 mean (IC50) (HCT-116; Table 4, mean/SD part): 7.558 µg/mL
